The values below come from PubChem BioAssay (NCI).

“And” between values parts separate entries of the source, which are not always exact repeats. Equal values may be shown once.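 Grown in 96-well plates, cells were treated for 48 hours with each compound at five concentrations. Insufficient inhibition: endpoint recorded as highest concentration tested. The concentration for 50% growth inhibition is given as GI50. Definition used: TGI = concentration required for complete inhibition of growth.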

This experiment deals with MDA-MB-468 breast. The experiment can be described thus: DTP human tumour cell line panel, 48 h.
By GI50 is commonly meant the concentration giving 50% growth inhibition. For orientation: TGI means the concentration at which net growth stops. A low value points to more potent growth arrest. As to `O=c1[nH]c(=O)n(C2CC(O)C(CO)O2)cc1CO` (stereo not drawn), the GI50 is more than 100000 nM and the TGI is more than 100000 nM. With `O=c1cc2oc3cc(O)c(O)cc3c(-c3ccccc3O)c-2cc1O`, the GI50 is 12600 nM and the TGI was 42600 nM. For the compound `N#C/C=C(\c1ccc([N+](=O)[O-])cc1)n1nnc2cc(Cl)c(Cl)cc21`, the GI50 was 1370 nM and the TGI was determined as 3330 nM. With `O=C(c1ccc(F)c(F)c1Nc1ccc(I)cc1F)N1CC(O)([C@@H]2CCCCN2)C1`, the GI50 is 3750 nM and 1790 nM; the TGI is 16200 nM and > 8970 nM. Take `COc1ccc2[nH]cc(-c3nc(-c4c[nH]c5ncccc45)cs3)c2c1`: the GI50 was 2690 nM and the concentration for total growth inhibition (TGI) is more than 100000 nM. For the compound `C[C@H]1Oc2cc(cnc2N)-c2c(nn(C)c2C#N)CN(C)C(=O)c2ccc(F)cc21`, the GI50 was 30800 nM and the TGI is more than 100000 nM. With `COc1cc(CNCCCN2C(=O)c3ccc4c5c(ccc(c35)C2=O)C(=O)N(CCCNCc2cc(OC)c(OC)c(OC)c2)C4=O)cc(OC)c1OC`, the 50% growth inhibitory concentration (GI50) was 153 nM and the TGI was 406 nM. As for `Cn1cnc([N+](=O)[O-])c1S(=O)(=O)Oc1ccccc1`, the GI50 was 1950 nM and the concentration for total growth inhibition (TGI) amounted to 4680 nM. On to `CCCCCCNC(=O)c1nc(-c2ccccc2)oc1Cc1ccc(OP(=O)(O)O)cc1`, for which the GI50 was 14300 nM and the total growth inhibition concentration (TGI) turned out to be 28200 nM. On to `O=C1c2c(c3c4cc(Br)ccc4[nH]c3c3ccc4ccccc4c23)C(=O)N1CCN1CCCCC1`, for which the GI50 was 1620 nM and the TGI was 3520 nM. For `C=CC(=O)N1CCC(C2CCNc3c(C(N)=O)c(-c4ccc(Oc5ccccc5)cc4)nn32)CC1` (stereo not drawn), in that order: 752 nM and 8520 nM. As for `Cc1ccc(/C=C/c2c(C(=O)/C=C/c3ccc(C(F)(F)F)cc3)c(C)nc3ccccc23)cc1`, the GI50 is 1840 nM and the TGI turned out to be 3530 nM. With `COc1cc(C2c3cc4c(cc3C(O)C(CO)C2CO)OCO4)cc(OC)c1OC` (stereo not drawn), the concentration for 50% growth inhibition (GI50) was 270 nM.

Take `COc1cc(-c2nn(-c3cccc(NC(=O)Nc4ccc(Cl)c(Cl)c4)c3)cc2-c2ccncc2)ccc1Cl`: the GI50 is 567 nM and the TGI amounted to 2270 nM.

Take `Cn1cc(C2=C(c3cn(C)c4cc(C(N)=O)ccc34)C(=O)NC2=O)c2ccccc21`: the GI50 is 1180 nM and the TGI stood at 15900 nM.

With `O=C(c1c(F)ccc(NS(=O)(=O)N2CC[C@@H](F)C2)c1F)c1c[nH]c2ncc(-c3cnc(C4CC4)nc3)cc12`, the GI50 is 3930 nM and 3670 nM; the TGI was > 10000 nM and 27900 nM. `N#Cc1c(-c2ccc(F)cc2)c(-c2ccc(F)cc2)nn(CCO)c1=O` gave a concentration for total growth inhibition (TGI) of more than 100000 nM.

As for `Cc1csc(Nc2nc(-c3cccc(Br)c3)nc(C(Cl)(Cl)Cl)n2)n1`, the GI50 was 354 nM and the concentration for total growth inhibition (TGI) was 1550 nM.

`Cc1nc2cnc(N)c(C#Cc3cncc(C(=O)Nc4ccc(CN5CCN(C)CC5)c(C(F)(F)F)c4)c3)c2nc1C`: the GI50 was 2250 nM and the concentration for total growth inhibition (TGI) was 15900 nM. `COc1ccncc1C#Cc1cncc(C(=O)Nc2ccc(CN3CCN(C)CC3)c(C(F)(F)F)c2)c1`: the GI50 is 24700 nM and the concentration for total growth inhibition (TGI) is more than 100000 nM. In the case of `Nc1nccc2c1ccn2-c1ccc(NC(=O)c2ccc(N3CCOCC3)c(C(F)(F)F)c2)cc1`, the GI50 is 2160 nM and the concentration for total growth inhibition (TGI) was 16500 nM. In the same order, the values of `N=c1ccn2c(n1)OC1C(O)C(CO)OC12` (stereo not drawn) are more than 100000 nM and more than 100000 nM. Take `CC1(C)OCCn2c1nc1c(N3CCOCC3)nc(-c3cnc(N)nc3)nc12`: the GI50 is 339 nM and the TGI was 2600 nM. With `CS(=O)(=O)CCCn1c(=O)c(Oc2ccc(F)cc2F)cc2cnc(NC3CCOCC3)nc21`, the GI50 was more than 25000 nM and the concentration for total growth inhibition (TGI) was more than 25000 nM. Regarding `COc1cccc2c1C(=O)c1c(O)c3c(c(O)c1C2=O)CC(O)(/C(C)=N/NC(=O)CCC(=O)N/N=C(\C)C1(O)Cc2c(O)c4c(c(O)c2C(OC2CC(N)C(O)C(C)O2)C1)C(=O)c1c(OC)cccc1C4=O)CC3OC1CC(N)C(O)C(C)O1` (stereo not drawn), the concentration for 50% growth inhibition (GI50) is 101 nM and the concentration for total growth inhibition (TGI) came out at 340 nM.

Consider `Nc1c(C(=O)Nc2cccc(Br)c2)sc2nc3c(cc12)C(=O)CCC3`, for which the GI50 is 259 nM and the TGI was more than 100000 nM. With `CCOC(=O)C(=Cc1cccc(Cl)c1)C(=O)OCC`, the GI50 is 1810 nM and the total growth inhibition concentration (TGI) amounted to 3850 nM. Turning to `COC12C=C/C(=C(/C(=O)OCc3ccncc3)C(=O)CCCCCCCCC3(OC)C=C/C(=C(/C(=O)OCc4ccncc4)C(=O)CCCCCCCC1)O3)O2`, the GI50 is 635 nM and the TGI came out at 2000 nM. For `CC(=O)c1cc2c(o1)C(=O)c1ccccc1C2=O`, the GI50 was 912 nM and 1260 nM; the TGI was 2540 nM and 2800 nM. Take `CC(C)=CCc1cc(O)cc2c1OC(C=C(C)C)C1=C2C(=O)C2=C(NCCS2(=O)=O)C1=O` (stereo not drawn): the GI50 is 2540 nM and the total growth inhibition concentration (TGI) was 7890 nM.
